Source: US6455076B1, “Formulations and methods for reducing skin irritation” (priority 1994, dated 2002)
Like-named read-outs stand apart in the source and are kept apart here.

Columns and labels:
[1] = test system: skin irritation caused by lactic acid; format: in vivo, human; details: for average inhibition of cumulative irritation (Percent Inhibition): cation salt 250 mM in 7.5% lactic acid irritant composition, applied to face, vs equimolar sodium chloride control, average over trials; for Percent Inhibition (cumulative irritation): representative panels, cation 250 mM, 7.5% lactic acid; for Percent Inhibition (cumulative irritation), dose-response: lactic acid irritation protocol
Protocol: The trials were conducted in a double blind, randomized, vehicle-controlled manner. Various formulations of the invention were tested in over 150 people.
Tests were conducted in multiple panels of from 7 to 12 subjects each. Subjects were instructed not to wear any makeup or facial lotions to the clinic the day of testing. T he subjects were instructed to wash their face with Ivory bar soap in the clinic prior to application of test solutions.
Lactic acid skin-irritant compositions were formulated in an appropriate vehicle prior to application to the skin of the subjects. […] […] The test formulation was applied to a defined portion of the subject's skin, typically the face. Controls were performed by applying a corresponding formulation with an equimolar amount of sodium chloride to a contralateral portion of the subject's skin.
All test solutions (including controls) were applied in a double blind, randomized fashion using the prepared solutions as previously placed in coded vial designated for use on either the right or left side of the face (or other test area). Solutions were typically applied using a cotton swab (six strokes) or sponge applicator to the face and cheek area extending from the midline of the nose over to the center of the cheek and from the cheek bone down to the jaw line. Application was made first to the right side and then to the left.
Sensory assessment scores were recorded for each treated side of the subject's skin every minute for 15 minutes or until three consecutive scores of “zero” irritation were obtained. The following scaled scores were used for sensory assessment:
Symptom scores were cumulated, separately for the cation-treated and control-treated areas, for each individual and also for the panel as a whole. Individuals not reporting a cumulative score of at least “7” on at least one treatment area were excluded (in a blinded fashion) from further analysis in order to ascertain anti-irritant efficacy with respect to the more severely-susceptible test subjects. From a practical standpoint, scores of “0” and “1” on the above scale would be considered highly desirable for a commercial product because such a response would likely not result in a consumer ceasing to use a product. Some consumers, in fact, might view the “barely perceptible” sensations represented by a score of 1 to be an indication that a facial treatment skin care product (especially an exfoliant) was working as advertised. By contrast, irritation scores of “2”, “3” and “4” would likely often result in a consumer never purchasing the product again.

skin irritation = test: Cation salts formulated in commercial topical cosmetic product, inhibition of skin irritation; format: in vivo; details: various amounts combined with Elizabeth Arden Visible Difference Refining Toner (alcohol-containing solution)
Description: Cation salts of the invention were formulated at various concentrations in various commercially available topical cosmetic products.

[2] = topical application, lactic acid induced stinging, burning, tingling, itching, erythema

Row | Compound | anti-irritant activity in clinical trials (in words) [1, 2] | average inhibition of cumulative irritation (Percent Inhibition) [1] [%] | inhibition of skin irritation (in words) (skin irritation) | Percent Inhibition (cumulative irritation) ([1]; vehicle 10% EtOH) [%] | also measured
1 | [Sn+2] [tin(II) (Sn^2+), tin(II)] | effective | – | – | – | –
2 | O=[N+]([O-])[O-].O=[N+]([O-])[O-].[Sn+2] [stannous nitrate] | – | – | – | – | anti-irritant activity in clinical trials (in words) ([1]; human, in vivo): particularly active as anti-irritants
3 | stannous chloride | particularly active as anti-irritants | 50 | – | – | anti-irritant efficacy in panel test (FIGS. 1-4, in words) ([1]; 250 mM, one panel, time course and cumulative irritation): overall efficacy of the subject formulation is clear; Percent Inhibition (cumulative irritation) ([1]; vehicle 33.75% H2O/33.75% Gly/25% EtOH): 50%
4 | [Cl][Al]([Cl])[Cl] [Aluminum chloride, aluminum chloride] | particularly active as anti-irritants | 46 | effective to inhibit skin irritation | 43 | Percent Inhibition (cumulative irritation), dose-response ([1]; salt concentration 31 mM): 12%; Percent Inhibition (cumulative irritation), dose-response ([1]; salt concentration 62 mM): 54%; Percent Inhibition (cumulative irritation), dose-response ([1]; salt concentration 125 mM): 50%; Percent Inhibition (cumulative irritation), dose-response ([1]; salt concentration 250 mM): 42%; Percent Inhibition (cumulative irritation), dose-response ([1]; salt concentration 500 mM): 44%
5 | [F][Sn][F] [Stannous fluoride, stannous fluoride] | – | 15 | effective to inhibit skin irritation | 17 | –
